Results as given in US20220363686A1 (AiCuris GmbH & Co. KG, priority 2018, published 2022).

Key:
[1] = system: HBV; assay: Determination of HBV DNA from the supernatants of HepAD38 cells (anti-HBV activity); assay type: cell-based, hepatitis B virus; settings: Hepatitis B virus, HePAD38, 144 h, HBV DNA in HepAD38 supernatant, day 6, qPCR; read-out: Cell Activity
In short: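 HepAD38 cells (60,000/well) seeded in tetracycline-free medium to induce HBV, treated with half-log serial compound dilutions for 6 days at 37 °C. HBV DNA purified from filtered supernatant and quantified by real-time PCR against HBV plasmid standards; EC50 from relative copy numbers by non-linear regression.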

[2] = Cell viability assay (AlamarBlue); settings: human, HepAD38 cells
[3] = target: HBV core protein (C-terminal truncated core protein containing 149 amino acids of the N-terminal assembly domain) (UniProt P03146); assay: Biochemical capsid assembly assay (fluorescence quenching); parameters: rows headed: Assembly Activity; other: BODIPY-FL labelled core protein, assembly started with NaCl, read after 6 min; settings: read-out: Assembly Activity; BODIPY-FL labelled core protein, assembly started with NaCl, read after 6 min
In short: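 N-terminal assembly domain (residues 1–149) plus C-terminal Cys150, E. coli-expressed, BODIPY-FL-maleimide labelled, used at 1.0–2.0 μM in 50 mM HEPES pH 7.5 with 0.5% DMSO. Assembly started with NaCl ([…]); fluorescence quenching (ex 477/em 525 nm) read after 6 min. 8-point compound series; EC50 by non-linear regression.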

Chain of HBV core protein (C-terminal truncated core protein containing 149 amino acids of the N-terminal assembly domain) (P03146 whole entry, the tested form may be a part): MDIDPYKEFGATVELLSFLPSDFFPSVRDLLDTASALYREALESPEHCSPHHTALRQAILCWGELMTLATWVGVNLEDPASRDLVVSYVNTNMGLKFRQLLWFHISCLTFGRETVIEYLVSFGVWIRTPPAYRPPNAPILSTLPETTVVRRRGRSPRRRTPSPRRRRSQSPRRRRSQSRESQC

| Compound | EC50 [1] [µM] | CC50 at 6 days [2] [µM] | IC50 [3] [µM] |
| --- | --- | --- | --- |
| Cc1c(F)ccc2[nH]c(C(=O)N3CCn4ncc(C(=O)NC5(COC(F)F)CC5)c4C3)cc12 [Example 103, N-{1-[(difluoromethoxy)methyl]cyclopropyl}-5-(5-fluoro-4-methyl-1H-indole-2-carbonyl)-4H,5H,6H,7H-pyrazolo[1,5-a]pyrazine-3-carboxamide] | < 1 | > 10 | < 5 |
| O=C(NC1(COC(F)F)CC1)c1cnn2c1CN(C(=O)c1cc3c(F)c(F)ccc3[nH]1)CC2 [Example 104, 5-(4,5-difluoro-1H-indole-2-carbonyl)-N-{1-[(difluoromethoxy)methyl]cyclopropyl}-4H,5H,6H,7H-pyrazolo[1,5-a]pyrazine-3-carboxamide] | < 1 | > 10 | < 5 |
| O=C(NC1(COC(F)F)CC1)c1cnn2c1CN(C(=O)c1cc3c(Cl)cccc3[nH]1)CC2 [Example 105, 5-(4-chloro-1H-indole-2-carbonyl)-N-{1-[(difluoromethoxy)methyl]cyclopropyl}-4H,5H,6H,7H-pyrazolo[1,5-a]pyrazine-3-carboxamide] | < 1 | > 10 | < 5 |
| O=C(NC1(C(F)(F)F)CCC1)c1cnn2c1CN(C(=O)c1cc3ccccc3[nH]1)CC2 [Example 106, 5-(1H-indole-2-carbonyl)-N-[1-(trifluoromethyl)cyclobutyl]-4H,5H,6H,7H-pyrazolo[1,5-a]pyrazine-3-carboxamide] | < 1 | > 10 | < 5 |
| Cc1cc(F)cc2[nH]c(C(=O)N3CCn4ncc(C(=O)N5CCCOCC56CC6)c4C3)cc12 [Example 107, 4-[5-(6-fluoro-4-methyl-1H-indole-2-carbonyl)-4H,5H,6H,7H-pyrazolo[1,5-a]pyrazine-3-carbonyl]-8-oxa-4-azaspiro[2.6]nonane] | < 1 | > 10 | < 5 |
| Cc1c(F)ccc2[nH]c(C(=O)N3CCn4ncc(C(=O)N5CCCOCC56CC6)c4C3)cc12 [Example 108, 4-[5-(5-fluoro-4-methyl-1H-indole-2-carbonyl)-4H,5H,6H,7H-pyrazolo[1,5-a]pyrazine-3-carbonyl]-8-oxa-4-azaspiro[2.6]nonane] | < 1 | > 10 | < 5 |
| O=C(c1cc2c(F)c(F)ccc2[nH]1)N1CCn2ncc(C(=O)N3CCCOCC34CC4)c2C1 [Example 109, 4-[5-(4,5-difluoro-1H-indole-2-carbonyl)-4H,5H,6H,7H-pyrazolo[1,5-a]pyrazine-3-carbonyl]-8-oxa-4-azaspiro[2.6]nonane] | < 1 | > 10 | < 5 |
| O=C(c1cc2c(Cl)cccc2[nH]1)N1CCn2ncc(C(=O)N3CCCOCC34CC4)c2C1 [Example 110, 4-[5-(4-chloro-1H-indole-2-carbonyl)-4H,5H,6H,7H-pyrazolo[1,5-a]pyrazine-3-carbonyl]-8-oxa-4-azaspiro[2.6]nonane] | < 1 | > 10 | < 5 |
| O=C(c1cc2cc(Cl)c(F)cc2[nH]1)N1CCn2ncc(C(=O)N3CCCOCC34CC4)c2C1 [Example 111, 4-[5-(5-chloro-6-fluoro-1H-indole-2-carbonyl)-4H,5H,6H,7H-pyrazolo[1,5-a]pyrazine-3-carbonyl]-8-oxa-4-azaspiro[2.6]nonane] | < 1 | > 10 | < 5 |
| Cc1cc(F)cc2[nH]c(C(=O)N3CCn4ncc(C(=O)N[C@H](C)C(F)(F)F)c4C3)cc12 [Example 112, 5-(6-fluoro-4-methyl-1H-indole-2-carbonyl)-N-[(2R)-1,1,1-trifluoropropan-2-yl]-4H,5H,6H,7H-pyrazolo[1,5-a]pyrazine-3-carboxamide] | < 1 | > 10 | < 5 |
| Cc1c(F)ccc2[nH]c(C(=O)N3CCn4ncc(C(=O)N[C@H](C)C(F)(F)F)c4C3)cc12 [Example 113, 5-(5-fluoro-4-methyl-1H-indole-2-carbonyl)-N-[(2R)-1,1,1-trifluoropropan-2-yl]-4H,5H,6H,7H-pyrazolol[1,5-a]pyrazine-3-carboxamide] | < 1 | > 10 | < 5 |
| C[C@@H](NC(=O)c1cnn2c1CN(C(=O)c1cc3c(F)c(F)ccc3[nH]1)CC2)C(F)(F)F [Example 114, 5-(4,5-difluoro-1H-indole-2-carbonyl)-N-[(2R)-1,1,1-trifluoropropan-2-yl]-4H,5H,6H,7H-pyrazolo[1,5-a]pyrazine-3-carboxamide] | < 1 | > 10 | < 5 |
| C[C@@H](NC(=O)c1cnn2c1CN(C(=O)c1cc3c(Cl)cccc3[nH]1)CC2)C(F)(F)F [Example 115, 5-(4-chloro-1H-indole-2-carbonyl)-N-[(2R)-1,1,1-trifluoropropan-2-yl]-4H,5H,6H,7H-pyrazolo[1,5-a]pyrazine-3-carboxamide] | < 1 | > 10 | < 5 |
| C[C@@H](NC(=O)c1cnn2c1CN(C(=O)c1cc3cc(Cl)c(F)cc3[nH]1)CC2)C(F)(F)F [Example 116, 5-(5-chloro-6-fluoro-1H-indole-2-carbonyl)-N-[(2R)-1,1,1-trifluoropropan-2-yl]-4H,5H,6H,7H-pyrazolo[1,5-a]pyrazine-3-carboxamide] | < 1 | > 10 | < 5 |
| O=C(c1cc2cc(F)c(Cl)cc2[nH]1)N1CCn2ncc(C(=O)N3CCC(O)CC34CC4)c2C1 (stereo not drawn) [Example 117, 4-[5-(6-chloro-5-fluoro-1H-indole-2-carbonyl)-4H,5H,6H,7H-pyrazolo[1,5-a]pyrazine-3-carbonyl]-4-azaspiro[2.5]octan-7-ol] | < 1 | > 10 | < 5 |
| O=C(c1cc2c(Cl)cccc2[nH]1)N1CCn2ncc(C(=O)N3CCC(O)CC34CC4)c2C1 (stereo not drawn) [Example 118, 4-[5-(4-chloro-1H-indole-2-carbonyl)-4H,5H,6H,7H-pyrazolo[1,5-a]pyrazine-3-carbonyl]-4-azaspiro[2.5]octan-7-ol] | < 1 | > 10 | < 5 |
| O=C(c1cc2c(F)c(F)ccc2[nH]1)N1CCn2ncc(C(=O)N3CCC(O)CC34CC4)c2C1 (stereo not drawn) [Example 119, 4-[5-(4,5-difluoro-1H-indole-2-carbonyl)-4H,5H,6H,7H-pyrazolo[1,5-a]pyrazine-3-carbonyl]-4-azaspiro[2.5]octan-7-ol] | < 1 | > 10 | < 5 |
| Cc1c(F)ccc2[nH]c(C(=O)N3CCn4ncc(C(=O)N5CCC(O)CC56CC6)c4C3)cc12 (stereo not drawn) [Example 120, 4-[5-(5-fluoro-4-methyl-1H-indole-2-carbonyl)-4H,5H,6H,7H-pyrazolo[1,5-a]pyrazine-3-carbonyl]-4-azaspiro[2.5]octan-7-ol] | < 1 | > 10 | < 5 |
| Cc1cc(F)cc2[nH]c(C(=O)N3CCn4ncc(C(=O)N5CCC(O)CC56CC6)c4C3)cc12 (stereo not drawn) [Example 121, 4-[5-(6-fluoro-4-methyl-1H-indole-2-carbonyl)-4H,5H,6H,7H-pyrazolo[1,5-a]pyrazine-3-carbonyl]-4-azaspiro[2.5]octan-7-ol] | < 1 | > 10 | < 5 |
| O=C(c1cc2ccccc2[nH]1)N1CCn2ncc(C(=O)N3CCC(F)(F)C3)c2C1 [Example 122, 2-[3-(3,3-difluoropyrrolidine-1-carbonyl)-4H,5H,6H,7H-pyrazolo[1,5-a]pyrazine-5-carbonyl]-1H-indole] | < 1 | > 10 | < 5 |
| O=C(NC1(CCOC(F)F)CCC1)c1cnn2c1CN(C(=O)c1cc3ccccc3[nH]1)CC2 [Example 123, N-{1-[2-(difluoromethoxy)ethyl]cyclobutyl}-5-(1H-indole-2-carbonyl)-4H,5H,6H,7H-pyrazolo[1,5-a]pyrazine-3-carboxamide] | < 1 | > 10 | < 5 |
| O=C(NC1(CCOC(F)F)CCCC1)c1cnn2c1CN(C(=O)c1cc3ccccc3[nH]1)CC2 [Example 124, N-{1-[2-(difluoromethoxy)ethyl]cyclopentyl}-5-(1H-indole-2-carbonyl)-4H,5H,6H,7H-pyrazolo[1,5-a]pyrazine-3-carboxamide] | < 1 | > 10 | < 5 |
| O=C(NC1(CCOC(F)F)CCOCC1)c1cnn2c1CN(C(=O)c1cc3ccccc3[nH]1)CC2 [Example 125, N-{4-[2-(difluoromethoxy)ethyl]oxan-4-yl}-5-(1H-indole-2-carbonyl)-4H,5H,6H,7H-pyrazolo[1,5-a]pyrazine-3-carboxamide] | < 1 | > 10 | < 5 |
| CN(C(=O)c1cnn2c1CN(C(=O)c1cc3ccccc3[nH]1)CC2)C1(CCOC(F)F)CCC1 [Example 126, N-{1-[2-(difluoromethoxy)ethyl]cyclobutyl}-5-(1H-indole-2-carbonyl)-N-methyl-4H,5H,6H,7H-pyrazolo[1,5-a]pyrazine-3-carboxamide] | 1 to 10 | > 10 | < 5 |
